Like-named read-outs stand apart in the source and are kept apart here. Bounds are passed on as bounds.

The subject of data set [1] is human non-small cell lung cancer cells NCI-H358 with KRas G12C mutation. The data set is described as follows: NCI-H358 cell proliferation, CellTiter-Glo Luminescent Cell Viability Assay. In kind it is cell-based. As to conditions: for inhibition at 1 µM: 1 μM compound, read-out: Inhibition rate % (1 μM). The text has this:
This assay verified the inhibitory activity of the compounds of the present disclosure on the proliferation of human non-small cell lung cancer cells NCI-H358 with KRas G12C mutation by using Promega's CellTiter-Glo® Luminescent Cell Viability Assay kit.
[Test materials]: NCI-H358 cell line (Cell Resource Center, IBMS, CAMS/PUMC, Item number: 3111C0001CCC000470), 96-well transparent flat-bottomed black-walled cell culture plate (Greiner Bio one, Cat #655096), RPMI-1640 Medium (GE, Cat #SH30809.01), Fetal Bovine Serum FBS (Thermo Fisher, Cat #10099-141), CellTiter-Glo® Luminescent Cell Viability Assay Kit (Promega, Cat #G7573), PBS (Solarbio, Cat #P1020), Trypsin (Thermo Fisher, Cat #25200072), DMSO (Sigma, Cat #D2650), Methyl cellulose (SIGMA, Cat #9004-67-5).
[Experimental procedure]: 180 μL of cell suspension (RPMI1640 solution with 10% FBS and 1% methyl cellulose) was charged to a 96-well cell culture plate at a density of 1500 cells/well. A control group containing no cells, no compounds and only 3D complete medium (RPMI 1640 solution with 1! Methyl cellulose and 10% FBS) (i.e. culture medium control) and a control group containing no compounds but cells (i.e. cell control) were set. AMG510 or the following reference compounds were used as positive controls. The cell plate was placed in a cell incubator overnight. A 10-fold drug solution (RPMI1640 solution with 10% FBS and 1% DMSO) was prepared at a concentration of 10 μM, and 20 μL of this solution was added to each well of the 96-well plate seeded with cells, so that the final concentration of the compounds in each well was 1 μM, and the DMSO concentration […] replicate wells were set up for each compound. The solutions of AMG510 or the following reference compounds were prepared in the same way and added to the positive control wells. The cell plate was placed in a cell incubator and cultured for 120 h. For endpoint detection, the CellTiter-Glo reagent was melted, and the cell plate was moved to room temperature to equilibrate for 30 minutes, added with 100 µL of CellTiter-Glo to each well, and shaken on an orbital shaker for 5 minutes to fully lyse the cells. The plate was kept at room temperature for 20 minutes to stabilize the luminescence signal, and the luminescence value of each well was full wavelength scanned with a multi-functional microplate reader (Molecular Devices, Spectramax M3 microplate reader).
[Test samples] The compounds of Examples 1-39, and reference compound A
[Data Analysis] The following formula was used to calculate the cell inhibition rate under the action of each concentration of the compounds:
Inhibition rate %=[1−(LumDrug to be tested−LumCulture medium control)/(LumCell control−LUMCulture medium control)]×100%
IC50 values were calculated using GraphPad Prism 7.0 software, nonlinear Sigmoidal regression was used to fit the data to obtain a dose-response curve.

Data set [2] is described as follows: Cassette pharmacokinetic experiment in rats (IV). The following applies: rat, plasma, 1 mg/kg, male SD rats, tail vein IV, 1 mg/mL each compound at 1 mL/kg. Type of data set: in vivo. An excerpt: 2.1 Pharmacokinetic Properties of Some Compounds of the Present Disclosure Evaluated by Cassette Pharmacokinetic Experiments in Rats.
[Test materials]: Male SD rats, age: 6-8 weeks, body weight 220-250 g, purchased from Zhaoyan (Suzhou) New Drug Research Center Co., Ltd.; Tolbutamide (Aladdin, Cat #H1401054); Sulfobutyl-(Captisol, Shandong Binzhou Zhiyuan Biological Technology Co., Ltd, Cat #20191013); Propylene glycol (15)-stearate (Solutol, Meilun Bio, Cat #50206A); DMSO (Vetec Company, Cat #WXBD0293V); acetonitrile (Sigma-Aldrich, Cat #WXBD1744V); Methanol (Sigma-Aldrich, Cat #WXBD2831V).
[Experimental procedure]: The compound combination was prepared in a solvent of 5% DMSO/10% Solutol/85% (20% Captisol), and the final concentration of each compound was 1 mg/mL. The SD rats were treated with the compound preparation in 1 mL/kg by tail vein IV injection, and blood samples were collected at the time points of 5 min, 15 min, 30 min, 1 h, 2 h, 4 h, 8 h, and 24 h via external jugular vein puncture, centrifuged at low temperature for 20 minutes to collect plasma samples, which were stored at −80° C. until analysis.
[Sample analysis]: Establishing LC-MS/MS compound analysis method
Standard curve preparation: 20 μL of lmg/mL DMSO stock solution for each compound was aspirated and transferred to […] of 50% methanol working solution, and the resulting solution was serially diluted to obtain a standard curve working solution with concentrations of 20000, 10000, 5000, 1000, 500, 100, 50, 20 and […]. Then 5 µL of this standard curve working solution was mixed with 45 μL rat blank plasma to give a standard curve with concentrations of 2000, 1000, 500, 100, 50, 10, 2 and 1 ng/mL for quantification of unknown samples.
Sample pretreatment: 50 μL of unknown plasma sample or standard curve sample was mixed with 250 μL of acetonitrile containing internal standard as a precipitant. The plasma protein was precipitated, extracted for test compounds, and centrifuged at low temperature for 20 minutes. The supernatant was taken, mixed with 0.1% formic acid aqueous solution, and 5 μL of the resulting solution was aspirated for blood concentration analysis.
[Data processing]: A standard curve was plotted using mass spectrometry software, to quantify unknown samples, and pharmacokinetic parameters are calculated by Winnonlin 8.2 using the drug concentration of unknown samples at each time point.

The subject of data set [3] is human non-small cell lung cancer NCI-H358 xenograft. The data set is described as follows: Antitumor activity in NCI-H358 xenograft mouse model. The following applies: NPSG mice, gavage once daily 10 mg/kg, day 14. Type of data set: in vivo, NPSG mice. On the procedure: Tumor growth inhibitory activity of the compounds of the present disclosure was evaluated and verified in a human non-small cell lung cancer NCI-H358 xenograft mouse model.
[Test materials]: NCI-H358 cell line carrying KRAS G12C mutation, provided by KYinno Biotechnology Co., Ltd. (from ATCC, Cat #CRL-5807). NPSG mice, female, provided by Beijing Phenotek Biotechnologies Inc.
[Experimental procedure]: 5×10^6 NCI-H358 cells (containing 50% Matrigel) were inoculated subcutaneously on the right flank of 6-8 weeks old female NPSG mice, with the inoculation volume of 0.1 mL. When the average tumor size reached 160-220 mm^3, the mice were grouped randomly according to tumor size and body weight, upon which the mice were treated with compounds on the same day designated as Day 0. The mice were gavage administrated once daily at 10 mg/kg or solvent control (50 mM citrate buffer containing 10% cyclodextrin, pH5.0). Tumor volume and body weight were measured twice a week during the study. The tumor volume was calculated by the formula V=D×d×d/2, wherein D and d refer to the long and short diameter of the tumor respectively.
In addition, using the same materials and procedures as above, the tumor inhibition activity of Example 9 at different doses in the above-mentioned non-small cell lung cancer mouse model and its effect on body weight were also investigated.

For the molecule `C=CC(=O)N1CCN(c2c(C#N)c(-c3cccc4c3CCN(C)C4)nc3c(F)c(-c4ccc(F)c5sc(N)nc45)c(Cl)cc23)CC1` [Example 10, 4-(4-Acryloylpiperazin-1-yl)-7-(2-amino-7-fluorobenzo[d]thiazol-4-yl)-6-chloro-8-fluoro-2-(2-methyl-1,2,3,4-tetrahydroisoquinolin-5-yl)quinoline-3-carbonitrile], in data set [1] (120 h), the inhibition at 1 µM was found to be 96.1%. Moreover, in data set [1] (120 h, read-out: IC50), the IC50 stood at 18 nM. Moreover, the half-maximal inhibitory concentration (IC50) in data set [1] (read-out: IC50 value) is under 20 nM. Also, in data set [2], the exposure AUC(0-t) worked out at 592 ng·h/mL, the clearance stood at 27.4 mL/min/kg and the half-life was 2.66 h.
On to `C=CC(=O)N1CCN(c2c(C#N)c(O[C@@H]3CN(C)C[C@H]3OC)nc3c(F)c(-c4ccc(F)c5sc(N)nc45)c(Cl)cc23)CC1` [Example 2, 4-(4-Acryloylpiperazin-1-yl)-7-(2-amino-7-fluorobenzo[d]thiazol-4-yl)-6-chloro-8-fluoro-2-(((3R,4R)-4-methoxy-1-methylpyrrolidin-3-yl)oxy)quinoline-3-carbonitrile], for which the inhibition at 1 µM in data set [1] (120 h) amounted to 97.6%. Also, the half-maximal inhibitory concentration (IC50) in data set [1] (120 h, read-out: IC50) was determined as 3 nM. Further, in data set [1] (read-out: IC50 value), the IC50 was under 20 nM. In data set [3], the “TGI(%)” value worked out at 69% and the “Tumor volume (mm^3) (day 14)” value came out at 497.3 mm^3.
`C=CC(=O)N1CCN(c2c(C#N)c(O[C@@H]3CN(C)C[C@H]3OC)nc3c(F)c(-c4ccc(F)c5sc(N)nc45)c(Cl)cc23)C[C@H]1C` [Example 1, 4-((R)-4-acryloyl-3-methylpiperazin-1-yl)-7-(2-amino-7-fluorobenzo[d]thiazol-4-yl)-6-chloro-8-fluoro-2-(((3R,4R)-4-methoxy-1-methylpyrrolidin-3-yl)oxy)quinoline-3-carbonitrile]: in data set [1] (120 h), the inhibition at 1 µM was 94.7%. In addition, the IC50 in data set [1] (120 h, read-out: IC50) was 15 nM. Moreover, in data set [1] (read-out: IC50 value), the IC50 is under 20 nM. Further, in data set [2], the exposure AUC(0-t) was found to be 657 ng·h/mL, the clearance amounted to 20.9 mL/min/kg and the half-life was 2.87 h. For the same molecule, in data set [3], the “TGI(%)” value is given as 71% and the “Tumor volume (mm^3) (day 14)” value was found to be 478.4 mm^3.
Take `C=C(F)C(=O)N1CCN(c2c(C#N)cnc3c(F)c(-c4ccc(F)c5sc(N)nc45)c(Cl)cc23)CC1` [Example 16, 7-(2-Amino-7-fluorobenzo[d]thiazol-4-yl)-6-chloro-8-fluoro-4-(4-(2-fluoroaryloxy)piperazin-1-yl)quinoline-3-carbonitrile]: in data set [2], the AUC(0-t) was determined as 2790 ng·h/mL, the clearance was determined as 5.93 mL/min/kg and the half-life was 3.5 h.

The values above are taken from patent publication US20230406849A1, “KRAS INHIBITORS FOR TREATMENT OF CANCERS” (TYLIGAND BIOSCIENCE (SHANGHAI) LIMITED, priority 2020, published 2023).
